# Test results from ChEMBL document CHEMBL4052785, “Discovery of (R)-5-(benzo[d][1,3]dioxol-5-yl)-7-((1-(vinylsulfonyl)pyrrolidin-2-yl)methyl)-7H-pyrrolo[2,3-d]pyrimidin-4-amine (B6) as a potent Bmx inhibitor for the treatment of NSCLC” (Bioorg Med Chem Lett, 2017).
# What was measured:
# [1] = test system: HCC827; assay: Antiproliferative activity against human HCC827 cells harboring EGFR Del19 mutant after 72 hrs by MTT assay; type: functional, cell-based; conditions: HCC827, 72 h
# [2] = test system: Mus musculus; assay: Toxicity in nude mouse xenografted with human NCI-H1975 cells assessed as body weight loss at 25 mg/kg administered qd via oral gavage measured every 2 days up to 18 days; type: organism-based; conditions: in vivo
# [3] = target: Cytoplasmic tyrosine-protein kinase BMX (Homo sapiens, UniProt P51813); assay: Inhibition of recombinant human full length N-terminal His6-tagged BMX expressed in Sf21 cells preincubated for 5 mins followed by biotinyl-beta Abeta Abeta AEEEPQYEEIPIYLELLP substrate addition after 30 to 60 mins in presence of ATP by fluorescence assay
# [4] = target: Tyrosine-protein kinase BTK (Homo sapiens, UniProt Q06187); assay: Inhibition of recombinant human full length N-terminal His6-tagged BTK expressed in baculovirus Sf21 insect cells preincubated for 5 mins followed by LSNLYHQGKFLQT substrate addition after 30 to 60 mins in presence of ATP by fluorescence assay
# [5] = target: Tyrosine-protein kinase TXK (Homo sapiens, UniProt P42681); assay: Inhibition of recombinant human N-terminal His6-tagged TXK (256 to end residues) expressed in baculovirus Sf21 insect cells preincubated for 5 mins followed by substrate addition after 30 to 60 mins in presence of ATP by fluorescence assay
# [6] = target: Dual specificity mitogen-activated protein kinase kinase 7 (Homo sapiens, UniProt O14733); assay: Inhibition of recombinant human N-terminal GST-tagged MKK7beta (2 to end residues) expressed in Escherichia coli preincubated for 5 mins followed by substrate addition after 30 to 60 mins in presence of ATP by fluorescence assay
# [7] = target: Tyrosine-protein kinase Yes (Homo sapiens, UniProt P07947); assay: Inhibition of recombinant human full length N-terminal His6-tagged YES expressed in baculovirus Sf21 insect cells preincubated for 5 mins followed by biotinyl-beta Abeta Abeta AYQAEENTYDEYEN substrate addition after 30 to 60 mins in presence of ATP by fluorescence assay
# [8] = target: Tyrosine-protein kinase Fgr (Homo sapiens, UniProt P09769); assay: Inhibition of recombinant human N-terminal His6-tagged FGR (2 to end residues) expressed in baculovirus Sf21 insect cells preincubated for 5 mins followed by substrate addition after 30 to 60 mins in presence of ATP by fluorescence assay
# [9] = target: Tyrosine-protein kinase HCK (Homo sapiens, UniProt P08631); assay: Inhibition of recombinant human N-terminal His6-tagged HCK (230 to 497 residues) expressed in baculovirus Sf21 insect cells preincubated for 5 mins followed by substrate addition after 30 to 60 mins in presence of ATP by fluorescence assay
# [10] = target: Tyrosine-protein kinase Lyn (Homo sapiens, UniProt P07948); assay: Inhibition of recombinant human full length N-terminal His6-tagged LYN expressed in Sf21 insect cells preincubated for 5 mins followed by […] substrate addition after 30 to 60 mins in presence of ATP by fluorescence assay
# [11] = target: Receptor-interacting serine/threonine-protein kinase 2 (Homo sapiens, UniProt O43353); assay: Inhibition of recombinant human N-terminal His6-tagged RIPK2 (1 to 299 residues) expressed in baculovirus Sf21 insect cells preincubated for 5 mins followed by substrate addition after 30 to 60 mins in presence of ATP by fluorescence assay
# [12] = target: Tyrosine-protein kinase Fer (Homo sapiens, UniProt P16591); assay: Inhibition of recombinant human N-terminal His6-tagged FER (541 to end residues) expressed in baculovirus Sf21 insect cells preincubated for 5 mins followed by substrate addition after 30 to 60 mins in presence of ATP by fluorescence assay
# [13] = target: Tyrosine-protein kinase JAK2 (Homo sapiens, UniProt O60674); assay: Inhibition of recombinant human C-terminal His6-tagged JAK2 (808 to end residues) expressed in baculovirus Sf21 insect cells preincubated for 5 mins followed by substrate addition after 30 to 60 mins in presence of ATP by fluorescence assay
# [14] = target: Serine/threonine-protein kinase Nek2 (Homo sapiens, UniProt P51955); assay: Inhibition of recombinant human full length N-terminal His6-tagged NEK2 expressed in baculovirus Sf21 insect cells preincubated for 5 mins followed by substrate addition after 30 to 60 mins in presence of ATP by fluorescence assay
# [15] = species: Homo sapiens; assay: Selectivity ratio of IC50 for recombinant human full length N-terminal His6-tagged BTK to IC50 for human full length N-terminal His6-tagged BMX
# [16] = species: Homo sapiens; assay: Selectivity ratio of IC50 for recombinant human N-terminal His6-tagged TEC (174 to end residues) to IC50 for human full length N-terminal His6-tagged BMX
# [17] = species: Homo sapiens; assay: Selectivity ratio of IC50 for recombinant human N-terminal His6-tagged ITK (352 to 617 residues) to IC50 for human full length N-terminal His6-tagged BMX
# [18] = species: Homo sapiens; assay: Selectivity ratio of IC50 for recombinant human N-terminal His6-tagged EGFR (696 to end residues) to IC50 for human full length N-terminal His6-tagged BMX
# [19] = species: Homo sapiens; assay: Selectivity ratio of IC50 for C-terminal His6-tagged human Her2 (676 to end residues) to IC50 for human full length N-terminal His6-tagged BMX
# [20] = species: Homo sapiens; assay: Selectivity ratio of IC50 for recombinant human N-terminal His6-tagged FGR (2 to end residues) to IC50 for human full length N-terminal His6-tagged BMX
# [21] = species: Homo sapiens; assay: Selectivity ratio of IC50 for recombinant human N-terminal His6-tagged HCK (230 to 497 residues) to IC50 for human full length N-terminal His6-tagged BMX
# [22] = species: Homo sapiens; assay: Selectivity ratio of IC50 for recombinant human full length N-terminal His6-tagged FYN to IC50 for human full length N-terminal His6-tagged BMX
# [23] = species: Homo sapiens; assay: Selectivity ratio of IC50 for recombinant human N-terminal His6-tagged FRK (218 to end residues) to IC50 for human full length N-terminal His6-tagged BMX
# [24] = species: Homo sapiens; assay: Selectivity ratio of IC50 for recombinant human N-terminal GST-tagged FLT3 (564 to end residues) to IC50 for human full length N-terminal His6-tagged BMX
# [25] = species: Homo sapiens; assay: Selectivity ratio of IC50 for recombinant human N-terminal GST-tagged RET (658 to end residues) to IC50 for human full length N-terminal His6-tagged BMX
# [26] = species: Homo sapiens; assay: Selectivity ratio of IC50 for recombinant human N-terminal His6-tagged RIPK2 (1 to 299 residues) to IC50 for human full length N-terminal His6-tagged BMX
# [27] = species: Homo sapiens; assay: Selectivity ratio of IC50 for recombinant human N-terminal His6-tagged ABL (27 to end residues) to IC50 for human full length N-terminal His6-tagged BMX
# [28] = species: Homo sapiens; assay: Selectivity ratio of IC50 for human JAK1 to IC50 for human full length N-terminal His6-tagged BMX
# [29] = species: Homo sapiens; assay: Selectivity ratio of IC50 for recombinant human full length N-terminal His6-tagged NEK2 to IC50 for human full length N-terminal His6-tagged BMX
# Dual specificity mitogen-activated protein kinase kinase 7, sequence (O14733 whole entry): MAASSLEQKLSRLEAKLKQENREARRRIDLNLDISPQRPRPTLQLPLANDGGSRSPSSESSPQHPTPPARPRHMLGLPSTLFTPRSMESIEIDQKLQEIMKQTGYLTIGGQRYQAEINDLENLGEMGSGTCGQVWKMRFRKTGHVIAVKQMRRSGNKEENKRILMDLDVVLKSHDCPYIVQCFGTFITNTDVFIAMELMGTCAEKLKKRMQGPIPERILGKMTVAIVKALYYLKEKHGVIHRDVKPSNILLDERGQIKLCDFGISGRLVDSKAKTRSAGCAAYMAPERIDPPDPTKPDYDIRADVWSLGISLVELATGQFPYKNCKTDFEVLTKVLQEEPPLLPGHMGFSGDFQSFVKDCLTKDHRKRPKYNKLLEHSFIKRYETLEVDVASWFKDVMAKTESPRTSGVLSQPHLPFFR
# Serine/threonine-protein kinase Nek2, sequence (P51955 whole entry): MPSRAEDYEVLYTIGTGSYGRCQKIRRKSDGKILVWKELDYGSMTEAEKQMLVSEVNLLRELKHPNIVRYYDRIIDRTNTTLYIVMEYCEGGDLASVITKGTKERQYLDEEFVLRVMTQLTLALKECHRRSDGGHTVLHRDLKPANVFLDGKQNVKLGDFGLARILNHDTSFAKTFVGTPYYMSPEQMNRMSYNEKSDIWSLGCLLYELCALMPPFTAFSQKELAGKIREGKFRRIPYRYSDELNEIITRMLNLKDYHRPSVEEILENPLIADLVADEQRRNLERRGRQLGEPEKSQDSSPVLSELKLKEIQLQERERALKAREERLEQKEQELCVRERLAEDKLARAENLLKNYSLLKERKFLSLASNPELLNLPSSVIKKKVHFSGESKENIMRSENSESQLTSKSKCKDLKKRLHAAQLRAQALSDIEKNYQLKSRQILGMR
# Tyrosine-protein kinase Fgr, sequence (P09769 whole entry, the tested form may be a part): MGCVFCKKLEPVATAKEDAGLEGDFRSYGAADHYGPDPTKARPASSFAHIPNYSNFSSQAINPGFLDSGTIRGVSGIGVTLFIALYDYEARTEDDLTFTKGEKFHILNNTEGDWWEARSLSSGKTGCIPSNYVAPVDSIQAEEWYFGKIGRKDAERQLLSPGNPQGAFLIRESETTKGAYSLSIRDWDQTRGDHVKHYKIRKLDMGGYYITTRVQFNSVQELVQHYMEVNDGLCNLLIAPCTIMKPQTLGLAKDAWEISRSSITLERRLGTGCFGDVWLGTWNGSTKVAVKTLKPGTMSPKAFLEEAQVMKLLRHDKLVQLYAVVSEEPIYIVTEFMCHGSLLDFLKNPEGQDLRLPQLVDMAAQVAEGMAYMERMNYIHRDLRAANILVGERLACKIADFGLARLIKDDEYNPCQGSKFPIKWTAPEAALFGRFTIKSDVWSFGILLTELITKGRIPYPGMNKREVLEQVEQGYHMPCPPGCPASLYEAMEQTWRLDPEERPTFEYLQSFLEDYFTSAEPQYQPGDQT
# Tyrosine-protein kinase BTK, sequence (Q06187 whole entry): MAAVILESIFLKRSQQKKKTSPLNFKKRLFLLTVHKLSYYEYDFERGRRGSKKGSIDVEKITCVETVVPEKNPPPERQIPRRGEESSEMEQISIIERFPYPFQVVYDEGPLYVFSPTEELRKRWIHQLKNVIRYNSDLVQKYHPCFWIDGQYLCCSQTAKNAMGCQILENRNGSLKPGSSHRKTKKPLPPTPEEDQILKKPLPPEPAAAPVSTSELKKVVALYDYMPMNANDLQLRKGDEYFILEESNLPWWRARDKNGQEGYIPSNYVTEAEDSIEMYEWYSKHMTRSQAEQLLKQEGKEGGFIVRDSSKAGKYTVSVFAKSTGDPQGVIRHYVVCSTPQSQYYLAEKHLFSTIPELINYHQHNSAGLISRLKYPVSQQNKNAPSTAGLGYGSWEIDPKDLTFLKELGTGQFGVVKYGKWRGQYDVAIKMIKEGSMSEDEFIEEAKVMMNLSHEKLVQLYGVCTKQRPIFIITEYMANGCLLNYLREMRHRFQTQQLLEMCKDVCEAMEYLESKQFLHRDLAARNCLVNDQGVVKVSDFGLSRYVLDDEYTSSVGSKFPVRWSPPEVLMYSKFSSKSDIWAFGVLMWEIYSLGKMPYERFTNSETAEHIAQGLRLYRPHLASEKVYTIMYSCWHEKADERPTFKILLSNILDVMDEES
# Tyrosine-protein kinase TXK, sequence (P42681 whole entry): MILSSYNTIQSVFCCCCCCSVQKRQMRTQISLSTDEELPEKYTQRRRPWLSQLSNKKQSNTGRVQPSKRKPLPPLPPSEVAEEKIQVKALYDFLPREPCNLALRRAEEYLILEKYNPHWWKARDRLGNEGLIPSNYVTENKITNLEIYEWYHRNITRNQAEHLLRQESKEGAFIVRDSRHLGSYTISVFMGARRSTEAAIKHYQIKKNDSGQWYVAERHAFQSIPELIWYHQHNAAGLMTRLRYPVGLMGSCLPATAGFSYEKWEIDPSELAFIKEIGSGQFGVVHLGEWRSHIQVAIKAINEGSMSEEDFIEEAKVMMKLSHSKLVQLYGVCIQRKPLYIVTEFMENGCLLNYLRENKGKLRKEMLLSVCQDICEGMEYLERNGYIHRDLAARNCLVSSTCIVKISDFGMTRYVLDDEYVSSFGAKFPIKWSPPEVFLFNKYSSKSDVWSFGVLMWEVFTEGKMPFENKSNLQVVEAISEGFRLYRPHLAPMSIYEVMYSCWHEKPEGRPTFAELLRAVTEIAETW
# Cytoplasmic tyrosine-protein kinase BMX, sequence (P51813 whole entry): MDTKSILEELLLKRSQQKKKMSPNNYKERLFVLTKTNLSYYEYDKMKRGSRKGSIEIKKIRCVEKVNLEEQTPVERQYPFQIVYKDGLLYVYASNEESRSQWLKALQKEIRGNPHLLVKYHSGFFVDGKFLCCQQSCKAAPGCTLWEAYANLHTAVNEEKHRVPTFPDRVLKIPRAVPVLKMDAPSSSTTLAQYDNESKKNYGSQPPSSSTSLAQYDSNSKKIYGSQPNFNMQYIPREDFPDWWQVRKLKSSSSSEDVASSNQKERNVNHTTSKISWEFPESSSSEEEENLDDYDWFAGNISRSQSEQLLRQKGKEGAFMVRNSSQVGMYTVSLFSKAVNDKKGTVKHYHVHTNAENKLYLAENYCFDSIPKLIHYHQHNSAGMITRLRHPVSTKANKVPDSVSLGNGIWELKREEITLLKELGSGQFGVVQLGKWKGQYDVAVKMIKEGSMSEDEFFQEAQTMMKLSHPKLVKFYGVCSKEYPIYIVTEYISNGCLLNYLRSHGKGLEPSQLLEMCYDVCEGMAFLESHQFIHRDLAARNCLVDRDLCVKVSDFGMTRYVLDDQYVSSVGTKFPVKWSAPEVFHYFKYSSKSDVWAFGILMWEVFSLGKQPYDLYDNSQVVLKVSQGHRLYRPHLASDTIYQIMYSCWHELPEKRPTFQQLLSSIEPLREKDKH
# Tyrosine-protein kinase HCK, sequence (P08631 whole entry, the tested form may be a part): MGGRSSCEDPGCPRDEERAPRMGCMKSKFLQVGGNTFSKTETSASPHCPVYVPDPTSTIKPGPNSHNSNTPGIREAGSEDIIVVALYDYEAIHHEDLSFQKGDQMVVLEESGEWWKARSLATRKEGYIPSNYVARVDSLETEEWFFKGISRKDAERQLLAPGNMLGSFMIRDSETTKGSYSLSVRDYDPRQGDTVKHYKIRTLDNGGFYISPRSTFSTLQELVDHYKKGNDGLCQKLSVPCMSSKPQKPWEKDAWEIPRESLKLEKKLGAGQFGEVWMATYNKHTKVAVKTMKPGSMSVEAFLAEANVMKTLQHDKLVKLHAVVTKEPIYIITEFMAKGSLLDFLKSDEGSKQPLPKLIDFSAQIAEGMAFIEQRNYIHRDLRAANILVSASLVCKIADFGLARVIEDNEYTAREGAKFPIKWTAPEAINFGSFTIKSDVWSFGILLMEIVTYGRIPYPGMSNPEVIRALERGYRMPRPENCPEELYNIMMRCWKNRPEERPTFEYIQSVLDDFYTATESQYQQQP
# Tyrosine-protein kinase Lyn, sequence (P07948 whole entry, the tested form may be a part): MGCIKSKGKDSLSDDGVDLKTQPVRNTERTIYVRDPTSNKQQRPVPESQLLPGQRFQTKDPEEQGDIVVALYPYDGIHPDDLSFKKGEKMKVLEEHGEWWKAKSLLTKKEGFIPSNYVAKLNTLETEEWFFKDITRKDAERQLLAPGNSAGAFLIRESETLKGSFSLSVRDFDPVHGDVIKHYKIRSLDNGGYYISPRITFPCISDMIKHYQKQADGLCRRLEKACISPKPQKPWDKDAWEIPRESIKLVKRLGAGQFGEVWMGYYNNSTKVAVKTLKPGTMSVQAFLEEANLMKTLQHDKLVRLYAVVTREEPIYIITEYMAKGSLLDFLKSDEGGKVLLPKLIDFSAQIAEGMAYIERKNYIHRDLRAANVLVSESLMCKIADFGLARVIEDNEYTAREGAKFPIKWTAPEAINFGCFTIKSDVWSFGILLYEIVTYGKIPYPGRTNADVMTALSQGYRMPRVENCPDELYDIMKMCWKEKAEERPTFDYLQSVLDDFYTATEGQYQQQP
# Tyrosine-protein kinase Yes, sequence (P07947 whole entry): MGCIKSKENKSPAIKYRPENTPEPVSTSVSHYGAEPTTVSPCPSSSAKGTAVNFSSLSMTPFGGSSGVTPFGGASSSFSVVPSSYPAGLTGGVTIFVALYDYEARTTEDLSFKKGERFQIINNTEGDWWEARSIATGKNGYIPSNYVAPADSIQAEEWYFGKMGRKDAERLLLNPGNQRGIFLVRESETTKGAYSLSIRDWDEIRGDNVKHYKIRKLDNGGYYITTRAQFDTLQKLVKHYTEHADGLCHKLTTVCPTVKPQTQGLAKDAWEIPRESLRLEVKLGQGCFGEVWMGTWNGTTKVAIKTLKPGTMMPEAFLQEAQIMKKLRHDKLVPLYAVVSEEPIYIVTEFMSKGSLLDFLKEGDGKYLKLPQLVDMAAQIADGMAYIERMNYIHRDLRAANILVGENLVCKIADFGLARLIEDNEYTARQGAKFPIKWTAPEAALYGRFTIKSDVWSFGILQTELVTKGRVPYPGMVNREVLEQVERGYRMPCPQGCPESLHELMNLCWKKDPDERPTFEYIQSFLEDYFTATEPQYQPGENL
smiles,measurement,setting,value
C=CS(=O)(=O)N1CCC[C@@H]1Cn1cc(-c2ccc3c(c2)OCO3)c2c(N)ncnc21,IC50,[1],14 nM
same,Activity,[2],Toxic
same,IC50,[3],35.7 nM
same,IC50,[4],88.6 nM
same,IC50,[5],883 nM
same,IC50,[6],189 nM
same,IC50,[7],57.3 nM
same,IC50,[8],133 nM
same,IC50,[9],199 nM
same,IC50,[10],312 nM
same,IC50,[11],403 nM
same,IC50,[12],5910 nM
same,IC50,[13],> 10000 nM
same,IC50,[14],> 10000 nM
same,Ratio IC50,[15],2.5
same,Ratio IC50,[16],3.1
same,Ratio IC50,[17],158
same,Ratio IC50,[18],18
same,Ratio IC50,[19],37.8
same,Ratio IC50,[20],3.7
same,Ratio IC50,[21],5.6
same,Ratio IC50,[22],12
same,Ratio IC50,[23],14.3
same,Ratio IC50,[24],91.7
same,Ratio IC50,[25],2.5
same,Ratio IC50,[26],11.3
same,Ratio IC50,[27],22.5
same,Ratio IC50,[28],> 280
same,Ratio IC50,[29],> 280
